From patent US9920295B2, “Bioreactor for isolation of rare cells and methods of use” (The Trustees of the University of Pennsylvania, priority 2012, dated 2018)
Where two headings read alike, the source gives them in different places.

Tests used:
[1] = system: CD34+ cells (CFU-E, BFU-E); experiment: Erythroid progenitor number in the presence of Epo (flow cytometry); format: cell-based, human; details: SCF, IL-3 and Epo, 3 days
Experimental: FIG. 20, comprising FIG. 20A through FIG. 20E, illustrates the functional effects of myosin-II inhibition on HSC differentiation. FIG. 20A (Left) illustrates the enrichment of polyploid MKs by Bleb from CD34^+ cells cultured in SCF and Tpo (n=4 donors). Y-axis represents the ratios between polyploid MKs and 2n+4n MKs. […] Hill coefficient=7.0. FIG. 20A (Middle) illustrates the enrichment of BFU-E relative to CFU-GM in the absence of Epo. CD34^+-derived cells were cultured with SCF and Tpo under Bleb and progenitors were enumerated by colony forming assays. […] FIG. 20A (Right) illustrates the sensitivity of erythroid progenitors against Bleb in the presence of Epo. CD34^+ cells were cultured with SCF, IL-3 and Epo for 4 days before treating with Bleb for 3 days, followed by flow cytometry with Hoechst 33342 to stain for nuclei. BFU-E=CD34^+IL-3R^+CD36^-; CFU-E=CD34^-IL-3R^-CD36^+. Absolute values were normalized to […] initial cell input and fit to dose-response curves: […] FIG. 20B is a graph depicting the limiting dilution analyses showing functional LT-HSCs after myosin inhibition. Human-CD34^+-derived cells were treated with Bleb for 3 days and injected intra-tibally into irradiated NSG mice. […] FIG. 20D illustrates the kinetics of human-CD41^+ plts in circulation were measured after transplantation of human CD34^+-derived cells and normalized by the initial number of CD41^+ cells transplanted. Areas under curves show significant differences between drug-treated and untreated. […] FIG. 20E is a graph showing that human-CD41^+ plts derived in vivo after transplantation into NSG mice show the normal plt size compared to human blood plts. […] Freshly purified bone marrow-derived human CD34^+ cells were obtained from either the Penn Xenograft Core Facility or AllCells (Emeryville, Calif.). Cells from at least 20 different donors were used in this study. Purity of the samples (>98%) was confirmed by flow cytometry with monoclonal antibody against human CD34. All experiments were performed in HSC expansion media ([…], Sigma) supplemented with 1× antibiotics, 20% BIT 9500 Serum Substitute (StemCell Technologies), 2 mM […] (Gibco) and the following human recombinant cytokines: SCF (100 ng/ml) and Tpo (100 ng/ml). In some occasions, the media was also supplemented by G-CSF (100 ng/ml), epidermal growth factor (EGF, 100 ng/ml), transforming growth factor beta 1 (TGF-beta1, 100 ng/ml), erythropoietin (EPO, 1 U/ml) and interleukin-3 (IL-3, 10 ng/ml). All cytokines were purchased from R&D Systems. After cells were cultured for 4 days, they were treated with different doses of cellular contractility inhibitors, including (±)-Blebbistatin (Bleb) (EMD Biosciences) and/or CH-223191 (Sigma) for indicated durations of up to 3 days.

[2] = biological target: T1, NMM-IIA (Homo sapiens, UniProt P35579); experiment: NMM-IIA phosphorylation in THP-1 cells (IP, MS, flow cytometry); format: cell-based
T1 construct: endogenous in cells; host or cells: THP-1 cells
Experimental: In general, cells were washed with ice-cold PBS and lysed on ice with lysis buffer (150 mM sodium chloride, 1% Nonidet P-40, 1% protease inhibitor mixture, 1 mM activated sodium orthovanadate, 50 mM Tris at pH 8.0) for 30 min. For immunoprecipitation (IP), 30 mM of pervanadate solution was prepared by mixing sodium orthovanadate with H2O2 for 15 min at room temperature. At least 1×10^7 THP-1 cells were treated with pervanadate with or without blebbistatin at 37° C. for 15 min. Cells were then washed, lysed, and whole-cleared lysate was mixed with anti-NMM-IIA antibody at 4° C. overnight, followed by incubation with Protein G (Invitrogen) for 1 h. For Western blot, whole lysate or IP proteins were separated on 4% to 12% SDS/PAGE gels (NuPAGE 4-12% Bis-Tris, Invitrogen). The proteins were then transferred to a polyvinylidene fluoride (PVDF) membrane with an iBlot Gel Transfer Device (Invitrogen), followed by blocking with 5% nonfat dry milk solution for 1 h. Incubation with primary antibodies was done at 4° C. overnight with 1:1,000β-actin, 1:250 pTyr, and 1:1,000 NMM-IIA antibodies. After washing, the membrane was incubated with 1:2,500 anti-rabbit and 1:1,000 anti-mouse HRP-conjugated IgG antibodies at room temperature for 1 h. […]

[3] = system: CD34+-derived cells (HSC, MPP, CPP); experiment: HSC/P numbers on FN-coated gels of different elasticity; format: cell-based, human; details: drug-treated cells
Experimental: 15-18 mm glass coverslips were treated in order with ethanol, RCA solution (1:1:3 for 15N NH4OH:30% H2O2:dH2O), methylene chloride and 0.1% allyltrichlorosilane solution. To control gel's stiffness, n,n′ methylene-bis-acrylamide and the acrylamide solution was mixed at the ratio of 0.07%:3% for soft gels (0.3 kPa), or the ratio of 0.3%:8% for stiff gels (34 kPa), final concentrations in PBS. ˜25 μl of the mixed solution was polymerized on a coverslip with 10% ammonium persulfate and n,n,n′,n′-tetramethylethylenediamine. During polymerization, gels were covered with another coverslip to obtain a uniform gel surface with the final thickness of ˜100 μm. Different concentrations of FN were then cross-linked with polymerized gels using sulfo-SANFAH (Pierce, Rockford, Ill.) by UV-crosslinking Thickness of gels and relative FN concentrations were verified by confocal microscopy. It is assumed that most FN from the solution was attached to gels (>70%). FN-coated gels were then treated with UV in PBS for at least 1 hr before use in cell culture.

T1 sequence (P35579 2-1960 limits assumed): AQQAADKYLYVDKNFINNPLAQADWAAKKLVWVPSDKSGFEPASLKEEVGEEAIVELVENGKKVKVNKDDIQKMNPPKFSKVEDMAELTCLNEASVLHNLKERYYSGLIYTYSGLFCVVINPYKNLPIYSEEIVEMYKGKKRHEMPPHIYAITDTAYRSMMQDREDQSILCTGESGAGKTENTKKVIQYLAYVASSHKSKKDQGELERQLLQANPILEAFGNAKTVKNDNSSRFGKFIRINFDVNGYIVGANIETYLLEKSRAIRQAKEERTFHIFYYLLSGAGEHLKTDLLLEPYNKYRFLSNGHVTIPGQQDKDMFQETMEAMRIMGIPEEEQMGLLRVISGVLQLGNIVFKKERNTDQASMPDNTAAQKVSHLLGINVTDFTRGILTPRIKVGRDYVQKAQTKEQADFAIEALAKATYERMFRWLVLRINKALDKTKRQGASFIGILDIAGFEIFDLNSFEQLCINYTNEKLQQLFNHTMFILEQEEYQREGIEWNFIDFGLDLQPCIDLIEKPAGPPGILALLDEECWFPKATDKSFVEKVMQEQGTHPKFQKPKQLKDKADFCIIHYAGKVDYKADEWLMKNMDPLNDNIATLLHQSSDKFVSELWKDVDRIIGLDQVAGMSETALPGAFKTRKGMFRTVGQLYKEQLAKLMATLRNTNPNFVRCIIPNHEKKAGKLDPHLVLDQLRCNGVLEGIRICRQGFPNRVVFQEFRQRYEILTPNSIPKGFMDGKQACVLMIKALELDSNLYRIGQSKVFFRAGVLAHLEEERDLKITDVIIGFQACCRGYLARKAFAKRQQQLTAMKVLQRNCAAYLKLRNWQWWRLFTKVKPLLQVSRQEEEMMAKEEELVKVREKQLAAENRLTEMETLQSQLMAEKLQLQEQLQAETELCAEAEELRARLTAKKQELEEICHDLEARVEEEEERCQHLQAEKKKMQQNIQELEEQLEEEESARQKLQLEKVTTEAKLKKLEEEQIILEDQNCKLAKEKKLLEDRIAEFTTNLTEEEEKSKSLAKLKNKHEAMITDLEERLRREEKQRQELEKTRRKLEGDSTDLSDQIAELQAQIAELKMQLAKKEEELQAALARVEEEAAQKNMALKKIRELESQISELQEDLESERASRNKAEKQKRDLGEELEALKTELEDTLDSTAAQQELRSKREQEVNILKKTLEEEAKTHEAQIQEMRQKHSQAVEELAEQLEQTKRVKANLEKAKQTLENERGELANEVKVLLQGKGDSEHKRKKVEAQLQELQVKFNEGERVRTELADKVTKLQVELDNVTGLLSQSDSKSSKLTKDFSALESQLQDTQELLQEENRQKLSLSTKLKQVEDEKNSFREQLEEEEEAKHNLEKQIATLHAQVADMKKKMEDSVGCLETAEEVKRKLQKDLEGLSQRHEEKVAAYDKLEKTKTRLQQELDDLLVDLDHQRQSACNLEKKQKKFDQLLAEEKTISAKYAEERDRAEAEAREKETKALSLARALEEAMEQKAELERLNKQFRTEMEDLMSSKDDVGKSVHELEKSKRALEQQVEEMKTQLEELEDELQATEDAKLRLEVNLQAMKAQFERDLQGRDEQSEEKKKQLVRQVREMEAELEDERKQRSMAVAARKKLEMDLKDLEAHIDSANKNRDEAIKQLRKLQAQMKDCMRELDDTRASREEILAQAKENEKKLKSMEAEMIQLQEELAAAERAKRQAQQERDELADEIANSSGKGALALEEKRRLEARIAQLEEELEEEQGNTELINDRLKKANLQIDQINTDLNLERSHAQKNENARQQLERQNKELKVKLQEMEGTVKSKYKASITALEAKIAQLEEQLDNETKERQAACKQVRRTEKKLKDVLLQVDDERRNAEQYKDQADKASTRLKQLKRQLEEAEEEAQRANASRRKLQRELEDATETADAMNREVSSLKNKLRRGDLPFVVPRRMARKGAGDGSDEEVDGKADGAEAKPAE
T1 sequence (P60660 2-151 partner limits assumed): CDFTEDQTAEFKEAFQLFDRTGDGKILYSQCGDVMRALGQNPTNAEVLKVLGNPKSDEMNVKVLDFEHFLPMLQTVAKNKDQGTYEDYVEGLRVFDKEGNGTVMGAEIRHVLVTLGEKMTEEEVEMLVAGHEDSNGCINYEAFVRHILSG
T1 sequence (O14950 2-172 partner limits assumed): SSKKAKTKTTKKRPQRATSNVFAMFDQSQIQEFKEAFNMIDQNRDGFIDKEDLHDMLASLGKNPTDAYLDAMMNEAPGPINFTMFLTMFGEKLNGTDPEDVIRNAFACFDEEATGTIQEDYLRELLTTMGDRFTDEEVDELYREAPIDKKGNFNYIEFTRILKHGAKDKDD

- IC50 ([1]; read-out: BFU-E 2n IC50): 10.9 µM
- IC50 ([1]; read-out: BFU-E 4n IC50): 13 µM
- IC50 ([1]; read-out: CFU-E 2n IC50): 8.7 µM
- IC50 ([1]; read-out: CFU-E 4n IC50): 12.9 µM
- pTyr levels ([2]; THP-1, basal and phosphatase-inhibited conditions): decreases pTyr levels
- phospho-S1943 of NMM-IIA ([2]; THP-1, detergent-soluble monomer): increases phospho-S1943
Compound: Cc1ccc2c(c1)C(=O)C1(O)CCN(c3ccccc3)C1=N2 (racemic) [blebbistatin, (±)-blebbistatin]
- CPP number soft vs stiff, mean [3]: 0.9±0.1
- MPP number soft vs stiff, mean [3]: 1.0±0.1
- increase of HSC-to-MPP ratio with increasing FN density [3]: > 2 fold
- ratio of HSC numbers soft vs stiff, mean [3]: 1.1±0.2
